For 88 molecules, melting point results are on record in a melting point compilation (Tetko et al.; mined from patent text by program, amines drawn as free bases though some values may be those of a salt).

Where only a bound is given, the exact number is not on record here.

`Cc1oc2c(NC(=O)c3c(Cl)cccc3Cl)cccc2c1COC(=O)CCCC(=O)NC(P(=O)(O)O)P(=O)(O)O`: the melting point was 190 to 195 °C.

In turn, `COc1ccc(-c2cncn2-c2ccc(S(=O)(=O)NC(C)(C)C)cc2)cc1F` registered a melting point of 229 to 232 °C.

`COC1CCN(S(=O)(=O)c2ccc(S(=O)(=O)Cl)cc2C(F)(F)F)CC1` had a melting point of 117 to 119 °C.

With `CCC(Oc1cc(C)ccc1C)C(=O)OC1CC(O)C=C2C=CC(C)C(CCC3CC(O)CC(=O)O3)C21` (mixture of isomers), the melting point was in the range of 138 to 140 °C.

`Nc1ccc2ccc(Oc3cccnc3)nc2n1` returned a melting point of 178 °C.

`O=C(O)CCC(=O)NCc1ccccc1` gave a melting point of 138 °C.

On to `CCOC(=O)CCCCCc1c(O)c2cccnc2n(-c2ccccc2)c1=O`, for which the melting point was in the range of 167 to 168 °C.

Consider `N#CC1=NC(Cl)(Cl)N=C1Cl`, for which the melting point lay in the range of 114 to 115 °C.

In turn, `CN(Cc1ccc2c(c1)Nc1nccnc1S2)C(N)=C[N+](=O)[O-]` showed a melting point above 265 °C.

Take `O=C1c2c(Cl)cccc2OCN1CCO[N+](=O)[O-]`: the melting point was 98 to 100 °C.

Regarding `CCCCCCCCN(CC(=O)NO)S(=O)(=O)c1ccc(C)cc1`, the melting point amounted to 89 °C.

For `CCc1cncnc1Nc1ccc(C(=O)CCC2CCN(Cc3ccccc3)CC2)cc1`, the melting point fell in the range of 136 to 138 °C.

As to `O=C1N(Cc2ccccn2)c2cccc(-c3ccc(Oc4ccccc4)cc3)c2C12COc1cc3c(cc12)OCCO3` (stereo not drawn), the melting point was 196 to 199 °C.

`CC(=O)NCc1ccc2c(c1)ncn2-c1cccc(-c2nccs2)c1` came in with a melting point of 156 °C.

`CCCCc1nc(Cl)c(CO)n1Cc1ccc(-c2ccccc2-c2n[nH]c(=O)o2)cc1`: the melting point was 163 to 164 °C.

Take `C[C@H](C/C=C/C=C/C(C)(C)O)[C@H]1CC[C@H]2[C@@H](O)CCC[C@]12C`: the melting point was 110 to 112 °C.

`CCCOc1n[nH]c(=O)n1C1CC1`: the melting point was in the range of 105 to 106 °C.

The molecule `CC(C)n1nc(-c2c(-c3ccccc3)nn3ccc(C(=O)NCCN(C)C)cc23)ccc1=O` registered a melting point of 157 to 158 °C.

Turning to `NC(=O)N(O)[C@@H]1COc2cc(OCc3ccccc3)ccc21`, the melting point is 192 to 193 °C.

As for `CC[C@@H](C(C)C)[C@H](O)[C@H](O)[C@@H](C)[C@H]1CC[C@H]2[C@@H]3CCC4=CC(=O)CC[C@]4(C)[C@H]3CC[C@]12C`, the melting point was 192 to 194 °C.

In the case of `OCCC(c1ccccc1)C(O)(c1ccccc1)c1ccccc1` (stereo not drawn), the melting point lay in the range of 112 to 113 °C.

The molecule `O=C(O)c1cc2cc3c(cc2c2cc(OCc4ccccc4)ccc12)OCO3` displayed a melting point of 263 to 265 °C.

`O=C(c1ccc(F)cc1)N1CCC[C@H](c2nc(-c3ccc([N+](=O)[O-])cc3)no2)C1` yielded a melting point of 162 to 164 °C.

In the case of `COc1cc(COc2nn(-c3ccccc3)cc2CC(=O)O)ccc1OCc1nc(-c2ccccc2)oc1C`, the melting point lay within 147 to 148 °C.

`O=C(c1ccc(Cl)cc1)c1ccc(Cc2c(Cl)cc(N3N=CCNC3=O)cc2Cl)cc1` showed a melting point of 205 to 206 °C.

Turning to `CCCC(=O)Nc1n[nH]c2cc(-c3ccc(C(C)(C)C)cc3)ccc12`, the melting point is 246 °C.

In the case of `O=C(Nc1ccc(Cl)cc1)C(Oc1cccc2ccccc12)C1CC1` (stereo not drawn), the melting point fell in the range of 204 to 206 °C.

Regarding `CC(Oc1ccnc2cc(Cl)ccc12)c1ccccc1F` (stereo not drawn), the melting point was 53 to 54 °C.

With `CCOC(=O)CCc1ccc(OCCOC)cc1OCc1ccccc1`, the melting point lay within 38 to 39 °C.

In the case of `O=C(Cl)c1cn(CCCCl)c(=O)c2cc(Cl)ccc12`, the melting point turned out to be 125 °C.

For the molecule `OCc1ccc2nc3c(cc2c1)-c1cccc2cccc-3c12`, the melting point lay in the range of 215 to 218 °C.

Regarding `Cc1n[nH]c2c(C(=O)NC3(C4CC4)CC3)c(NC(=O)c3cc(C(F)(F)F)nn3-c3ncccc3Cl)c(Cl)cc12`, the melting point was 228 to 229 °C.

Consider `O=C1NC(=O)C(Nc2ccc(Br)c3ccccc23)S1` (stereo not drawn), for which the melting point fell in the range of 199 to 200 °C.

`COc1cccc2c1Sc1c(OC)cccc1C2(CCOS(C)(=O)=O)CCOS(C)(=O)=O` had a melting point of 176 to 178 °C.

Molecule `COc1cc(CCc2ccc(Nc3ccccc3C(=O)O)cc2)cc(OC)c1OC` had a melting point of 146 to 147 °C.

As for `Nc1nc(NCCc2ccc(O)cc2)nc2nc(-c3ccco3)nn12`, the melting point was 225 to 227 °C.

`CC(=O)N1CCc2cccc(Cl)c2CC1`: the melting point was in the range of 64 to 66 °C.

As for `O=C(O)Cn1c(=S)c2ccccc2n(Cc2ccc(Cl)c(Cl)c2)c1=O`, the melting point was 237 to 238 °C.

As to `CCC(C)(C)c1ccc(Oc2cccc(C#N)c2C#N)c(C(C)(C)CC)c1`, the melting point lay within 143 to 144 °C.

`CC1OC(=S)Nc2ccc(-c3cccc(F)c3)cc21` (stereo not drawn) registered a melting point of 173 to 174 °C.

Turning to `CC1(C)Cc2nc(C3CC3)c(Cc3ccc(C(F)(F)F)cc3)c(-c3ccc(F)c(F)c3)c2C(O)C1` (stereo not drawn), the melting point was in the range of 126 to 127 °C.

Consider `CCOC(=O)c1ccc(-c2ccc(OC)cc2)cc1`, for which the melting point is 103 to 104 °C.

The molecule `O=S(=O)(c1ccc(Cl)cc1)C(c1ccc(CN2CCOCC2)cn1)c1cc(F)ccc1F` (stereo not drawn) had a melting point of 120 to 121 °C.

Regarding `CN(C)CCNC(=O)N1CCC(Oc2ccccc2)C1` (stereo not drawn), the melting point lay in the range of 72 to 73 °C.

Molecule `CC1CCCN1CCCOc1ccc(C2CCC(O)CC2)cc1` (stereo not drawn) returned a melting point of 80 °C.

In the case of `CCC1CC(=O)N(CCc2ccc(NC(=O)c3cnccn3)cc2)N=C1c1ccc(OC)c(OC)c1` (stereo not drawn), the melting point was found to be 202 °C.

For `Cc1cc(C)c2c(c1C)OCC2c1ccc(C2OCCO2)cc1` (stereo not drawn), the melting point lay in the range of 107 to 108 °C.

In the case of `CCCCCC(O)CNC` (stereo not drawn), the melting point fell in the range of 40 to 43 °C.

Consider `CCOC(=O)C(=Cc1ccccn1)C(=O)c1ccc(F)cc1`, for which the melting point lay within 128 to 129 °C.

In turn, `ClC(Cl)=CCOc1cc(Cl)c(OCc2ccc3ccccc3c2)c(Cl)c1` gave a melting point of 86.7 °C.

Regarding `CCOc1nc2cccc(C(=O)OC(C)OC(=O)OC3CCCCC3)c2n1Cc1ccc(-c2ccccc2-c2nc(=O)o[nH]2)cc1` (stereo not drawn), the melting point lay within 108 to 109 °C.

With `O=C1CSCC(c2ccc(F)cc2)N1` (stereo not drawn), the melting point was 111 to 112 °C.

In turn, `O=C(CNc1ccccc1)Nc1ccc(F)cc1C(=O)O` gave a melting point of 194 to 195 °C.

Turning to `CC(=O)n1nc(C)c2ccccc21`, the melting point lay in the range of 70 to 71 °C.

The molecule `Cn1c(C(F)(F)F)cc(=O)n(-c2cc(OCC(N)=O)c(Cl)cc2F)c1=O` yielded a melting point of 104 to 106 °C.

Consider `CCc1nc2csc(C(=S)OC)c2[nH]1`, for which the melting point is 140 to 142 °C.

In turn, `CCOC(=O)c1ccc(COCc2csc3nc(C(=O)NCc4cccc(SC)c4)[nH]c(=O)c23)cc1` displayed a melting point of 207 to 209 °C.

The molecule `Cc1cc(C)c2c3ccccc3c(=O)n(CCN(C)C)c2n1` registered a melting point of 128 to 130 °C.

Consider `Cc1cc(NC(C)(C)C)nc(NC(C)(C)C)c1C#N`, for which the melting point fell in the range of 134 to 138 °C.

`CC1(C)CCC(C)(C)c2cc(C(=O)C(=O)c3ccc(C(=O)O)cc3)ccc21` registered a melting point of 148 to 151 °C.

The molecule `COc1cc(N[C@H]2CC[C@H](NCc3ccccc3)CC2)c(Cl)cc1C(N)=O` showed a melting point of 204 to 206 °C.

For the molecule `CN(C)c1cc(C(=O)CS(C)(=O)=O)cc(N(C)C)c1`, the melting point was 151 to 153 °C.

`CCCCCCCC(=O)N(C)Cc1cccc(-c2ccc(CCC(=O)O)s2)c1`: the melting point was in the range of 67 to 68 °C.

On to `O=C1CCCN1CCc1c2ccccc2n2c1[nH]c(=O)c1ccccc12`, for which the melting point was 154 to 155 °C.

In turn, `CN(C)CCN1C(=O)N2[C@H](c3cccc(O)c3)c3[nH]c4ccc(Br)cc4c3C[C@@]2(C)C1=O` (racemic) showed a melting point of 286 to 288 °C.

As for `CN1CCC(c2c[nH]c3ccc(C(=O)c4ccccn4)cc23)CC1`, the melting point was 90 °C.

Consider `Nc1nc(N)c2c(n1)CCC(Cc1cc(Cl)cc(Cl)c1)C2` (stereo not drawn), for which the melting point is above 200 °C.

Regarding `O=C(NC(CS)Cc1ccccc1)N1CCOCC1` (single isomer, unassigned; (+)), the melting point was 84 °C.

`COc1ccc(OCCCCCBr)c(C2Sc3cc(Cl)ccc3N(C)C2=O)c1` (stereo not drawn) had a melting point of 105 to 106 °C.

Consider `Cc1ccc(-c2ccc3c(c2)C=C(C(=O)NC2CCN(CCC4CCCCC4)CC2)CCO3)cc1`, for which the melting point fell in the range of 193 to 196 °C.

Consider `CC(C)c1c(CO)c(-c2ccc(F)cc2)c2n1CCCC2`, for which the melting point was in the range of 97 to 99 °C.

Regarding `c1ccc(OC2CCN(CCc3c[nH]c4ccccc34)CC2)cc1`, the melting point fell in the range of 123 to 125 °C.

The molecule `O=C(CCC(=O)c1ccccc1)NCc1ccccc1` yielded a melting point of 110 to 112 °C.

`COc1ccc(-c2cc3cc(OC)cc(C=NO)c3o2)cc1` gave a melting point of 185 to 187 °C.

For the molecule `CC(=O)SC1CC(=O)N1C(C(=O)OCc1ccc([N+](=O)[O-])cc1)=P(c1ccccc1)(c1ccccc1)c1ccccc1` (stereo not drawn), the melting point fell in the range of 154 to 155 °C.

As to `O=C(O)c1cc(C(F)(F)F)ccc1Sc1ccccc1`, the melting point was in the range of 140 to 145 °C.

On to `CC(=O)OCc1nc2c([N+](=O)[O-])cc(Br)cc2n1C`, for which the melting point is 143 to 145 °C.

The molecule `CNc1nc(C)nc(N2CCCC(C)C2)n1` (stereo not drawn) displayed a melting point of 155 to 156 °C.

`C=CCN(C1=NCCN1C)c1c(Cl)cccc1Cl` returned a melting point of 59 to 61 °C.

With `COC(=O)[C@H](O[Si](C)(C)C)[C@@H](O[Si](C)(C)C)C(=O)OC`, the melting point worked out at 75 °C.

With `BrCc1noc2c1ccc1ccccc12`, the melting point fell in the range of 100 to 103 °C.

As to `Cc1cccc(SCC(=O)C23CC4CC(CC(C4)C2)C3)n1`, the melting point is 116 °C.

For the molecule `O=C(OC1CCCCC1)C1=C(c2ccccc2)C(c2ccccc2)OC1=O` (stereo not drawn), the melting point was 139 to 142 °C.

In turn, `CSc1ccc(-c2nc(SC)c(C#N)c(=O)n2-c2ccc(C(C)C)cc2)cc1` had a melting point of 180 to 181 °C.

`CCCCCCCCOc1cc(CBr)c(OCCCCCCCC)cc1CBr` yielded a melting point of 83 °C.

Regarding `COCc1cnc2c([N+](=O)[O-])cc(C)cc2c1Cl`, the melting point is 107 to 111 °C.

As for `Cc1onc(-c2ccccc2)c1-c1csc(NC(=O)C(N)=O)n1`, the melting point lay within 204 to 205 °C.

In the case of `Cc1nn(-c2ccccn2)c2nc3ccccc3cc12`, the melting point lay in the range of 153 to 154 °C.
